From patent EP0497921B1, “METHOD FOR INHIBITING ENZYMATIC SYNTHESIS OF NUCLEIC ACIDS USING ISOPSORALENS” (ISAACS, Stephen T., priority 1989, dated 1991)

Columns and labels:
tRNA = experiment: Photobinding to RNA; assay type: binding; details: 100 µg/ml, irradiated 30 minutes; 1-10 µg treated tRNA spotted; no signal from unirradiated controls
Method: This example describes photobinding of ^3H-AMIP, ^3H-AMDMIP and BIOMIP to RNA. A tRNA stock was prepared at a concentration of 765 µg/ml in 1 x TE / 10 mM NaCl. Appropriate amounts of each compound were prepared in separate reaction vessels such that upon addition of 200 µl of the tRNA solution (153 µg) the final concentration of each compound was 100 µg/ml. ^3H-AMIP and […] in the experiment; the BIOMIP used was unlabelled. Each reaction vessel was then irradiated for 30 minutes at 25 °C in the CE-III device. Identical unirradiated reaction mixtures were used as controls for each compound. Following irradiation, each mixture was extracted with CHCl3 (4 x 200 µl) then precipitated (X2). The pellets were resuspended in 1 x TE and the binding levels determined as follows. For the two labelled compounds (^3H-AMDMIP and ^3H-AMIP), the nucleic acid concentration was determined optically and radioactivity measured by scintillation counting of aliquots of the stock solutions. Binding of the compounds was then calculated to be as follows:
To determine if binding of BIOMIP to tRNA has occurred, it was necessary to use a non-radioactive format which detected the biotin moiety on the compound. A commercial kit ("BluGene"; BRL) was used for this purpose. The kit instructions were followed for detection of both the control DNA (supplied with the kit) and BIOMIP treated tRNA. […]

PCR'd MACS 1555 = experiment: Inhibition of PCR by non-psoralen compounds in the absence of light; assay type: biochemical; details: 30 cycles
From the text: The compounds tested were the following: 1) ethidium bromide (a Phenanthridine, see Table 1), 2) xylene cylanol (an Organic Dye, see Table 1), 3) bromphenol blue (an Organic Dye, see Table 1), 4) coumarin and 5) methylene blue (a Phenazathionium Salt, see Table 1).
A separate experiment examined PCR inhibition with coumarin and methylene blue in the absence of light. The following concentrations of methylene blue were tried: 4.3 x 10^-2, 4.3 x 10^-3, 4.3 x 10^-4 and 4.3 x 10^-5 M. Concentrations of coumarin tried included: 7 x 10^-3, 7 x 10^-4, 7 x 10^-5 and 7 x 10^-6 M. Compound was added to PCR tube containing α-^32P-dCTP and target (1 µl […].; PCR'd MACS 1555 per assay-point). PCR was carried out for 30 x cycles. Samples were loaded onto a 12% / 8 M urea gel.

5-N-[N,N'-Dimethyl-(6-[biotinamido]-hexanoate) -1,6-hexanediamine])-methyl-isopsoralen [BIOMIP]
binding to tRNA detected via biotin moiety (BluGene kit) (tRNA): covalently bound to the tRNA

O=c1ccc2ccccc2o1 [Coumarin, coumarin]
inhibition of PCR in the absence of light (PCR'd MACS 1555): did not inhibit PCR at any of the concentrations tested
